Assay [1] deals with RPE-Neo cells. Nature of the assay: IC50 in RPE-Neo cells (Table 2). It counts as cell-based, human. As for the experimental part: (§1) Cells were split, plated in appropriate culture media and allowed to adhere. After 18 hours, corynoline and acetylcorynoline were added to a cell line selected from below. At 72 h or 96 h, MTT was added and at 75 h or 99 h, the A570 nm was recorded. The concentration ranged from 0.02 μM to 40 μM.
(§2) The following RPE cell lines were used in these studies: RPE NEO, RPE MBH, RPE MBC, RPE MA, RPE MP, RPE MI, and RPE MYC Nick. This RPE series were derived from human retinal pigment epithelium and then stably transfected with an hTERT expression construct for immortalization. The resulting cell line was then engineered to overexpress the MYC oncogene (RPE-MYC) or a Neomycin selection marker gene (RPE-NEO). In RPE-MYC cells, a variety of other oncogenes such as Myr-AKT, BCL2, ID1 and PI3K^E45k were further introduced individually to generate the cell lines RPE MA, RPE MBC, RPE MI, RPE MP, respectively. As a control, H2BGFP was introduced into RPE-MYC cells to generate RPE MBH.
(§3) The effect of the compounds chelidonine and protopine on cell division was assessed similarly to corynoline and acetylcorynoline above. As described in Example 6 above, as cells enter and become arrested in mitosis, they detach from the plate surface and appear as rounded cells with a smooth surface membrane. RPE-MBC cells (ectopically expressing oncogenes MYC and Bcl2) were treated with DMSO, chelidonine and protopine, and compared against controls Michael's ketone (MK) and taxol.

The test system of assay [2] is 3T3 MEF cells. Nature of the assay: IC50 in 3T3 MEF cells (Table 2). It counts as cell-based. How it is done:
as §1, §3

In assay [3] the test system is IMR 90 cells. Nature of the assay: IC50 in IMR 90 cells (Table 2). It counts as cell-based. The conditions noted are these: Homo sapiens, IMR-90, 72 h. How it is done:
as §1, §3

The subject of assay [4] is RPE-A19 cells. Briefly: IC50 in RPE-A19 cells (Table 2). It counts as cell-based, human. As for the experimental part: as §1, §3
The subject of assay [5] is RPE-MBH cells. Briefly: IC50 in RPE-MBH cells (Table 1). It counts as cell-based, human. As for the experimental part: as §1, §2, §3
The subject of assay [6] is RPE-MBC cells. Briefly: Mitotic arrest (cell round-up, phospho-Histone H3) and polyploidy (DAPI) assay. It counts as cell-based, human. Particulars: for mitotic arrest: 24 hours after treatment; for polyploidy (DAPI staining): 48 hours after treatment; for persistence of the arrest of cells in mitosis: within 48-hour treatment. As for the experimental part:
(§4) For screening for bioactive fractions, cells were cultured in 96-well plates, and exposed to crude extracts, partially purified fractions or pure compounds at the concentrations indicated in the figure legends. Exposure was for 24 or 48 hours before analysis of cells for either an arrest in mitosis using an inverted microscope or for a change in DNA content after 4′,6′-diamidino-2-phenylindole (DAPI) staining by fluorescence microscopy.
(§5) Cells were cultured on coverslips in a 6-well plate, fixed with 4% paraformaldehyde and then permeabilized with 0.3% Triton X-100 in PBS. Primary antibody was detected with Texas-Red-conjugated secondary antibodies that were purchased from Jackson ImmunoResearch. After immunostaining, cells were mounted on microscope slides with 4′,6′-diamidino-2-phenylindole (DAPI)-containing Vectashield mounting solution (Vector Laboratories) for detection of fluorescence with an EVOS FL fluorescence microscope (ThermoFisher).
Cellular “round-up” was used as a surrogate marker for mitotic arrest and could easily be assayed using an inverted tissue culture microscope. […] Mitotic arrest was judged by cell round-up observed under an inverted tissue culture microscope 24 hours after exposing cells to the library.
As cells enter and become arrested in mitosis, they detach from the plate surface and appear as rounded cells with smooth surface membrane, distinct from detached cells that are undergoing programmed cell death. Simple visual screening method was used to assay thousands of extracts. […] To identify bioactive components that are able to interfere with mitosis, 3 kg of Corydalis longicalcarata rhizome were recollected and performed bioactivity-guided extraction, isolation, and purification. The air dried and powdered material was extracted with 70% ethanol assisted by exposure to ultrasonic waves.

Assay [7] deals with RPE MBC cells. Nature of the assay: Spindle pole assembly by β-tubulin / Histone H3ser10P immunofluorescence. It counts as cell-based, human. How it is done:
Microtubule assembly, specifically spindle pole assembly, was altered by treatment with acetylcorynoline. RPE MBC cells were treated with acetylcorynoline and Histone H3 Serine 10 Phosphorylation (Histone H3ser10p, shown in FIG. 4 and FIG. 5 in red), β-tubulin (green) and DNA (blue) was analyzed by immunofluorescence microscopy. Histone H3ser10P was used to determine the cells that were in early mitosis (e.g., prometaphase or metaphase). β-tubulin was used to examine microtubule localization and spindle assembly within the cells.
Similarly to corynoline and acetylcorynoline above, it was determined that microtubule assembly, specifically spindle pole assembly, was altered by treatment with chelidonine.

Assay [8] relates to Rat1A cells. Nature of the assay: IC50 in Rat1A cells (Table 2). It counts as cell-based. How it is done: as §1
(§6) The following Rat1A cell lines were used in these studies: Rat1 A C, Rat1A MYC, Rat1A E2F1, and Rat1A E2F3. The cell line was then engineered as control (C), to overexpress the MYC oncogene (Rat1A-MYC), to overexpress the E2F1 oncogene (Rat1A-E2F1), or to overexpress the E2F3 oncogene (Rat1A-E2F3).
as §3

The subject of assay [9] is RPE-MBC cells. Nature of the assay: IC50 in RPE-MBC cells (Table 1). It counts as cell-based, human. As for the experimental part: as §4, with “Retinal pigment epithelial cells transformed by ectopic MYC and Bcl-2 expression (RPE-MBC cells) have been described previously (e.g., Goga et al., 2007, Nat. Med., 13 (7):820-827) and were cultured in DMEM supplemented with 5% fetal bovine serum in a humidified incubator that was maintained at 5% CO2. For” for “For”
The RPE series were derived from human retinal pigment epithelium and then stably transfected with a hTERT expression construct for immortalization. The resulting cell line was then engineered to overexpress the MYC and BCL2 oncogenes, generating the RPE MBC cell line. This cell line mimics cancer cells that overexpress MYC and Bcl2, and readily forms viable polyploid cells when cytokinesis is prevented.
as §1, §3

Assay [10] deals with aurora-B kinase. Briefly: Phosphorylation of Histone 3 at Ser10 as surrogate of aurora-B kinase activity. It counts as cell-based. How it is done:
as §5

Assay [11] concerns all tested cell lines (RPE, Rat1A and human cancer cell lines). Nature of the assay: MTT assay, IC50 across all of the cell lines tested. It counts as cell-based. The conditions noted are these: for IC50: Homo sapiens. A general note: Formazan colour is commonly taken as a measure of viable cells.
In assay [12] the test system is RPE cell lines (RPE NEO, RPE MBH, RPE MBC, RPE MA, RPE MP, RPE MI, RPE MYC Nick). Briefly: MTT assay, RPE cell lines expressing oncogenes. It counts as cell-based, human. The conditions noted are these: RPE cell lines compared with RPE NEO control (FIG. 11).
For assay [13], the system named is Rat1A cell lines (Rat1A C, Rat1A MYC, Rat1A E2F1, Rat1A E2F3). Nature of the assay: MTT assay, Rat1A cell lines expressing oncogenes. It counts as cell-based. The conditions noted are these: Rat1A cell lines compared to Rat1A C (FIG. 12). As for the experimental part:
as §1, §6

Assay [14] relates to all tested cell lines (RPE, Rat1A and human cancer cell lines). Particulars: positive control, read-out: known IC50 value; cited from earlier work.
The mark [15] stands for this setting: 3T3 MEF, treatment 72 h, read-out: IC50.
The mark [16] stands for this setting: RPE-A19, treatment 72 h, read-out: IC50.
Where [17] appears, read: RPE-MBH, treatment 72 h, read-out: IC50.

The values that follow come from patent US20240139162A1, “Benzophenanthridine Alkaloids and Their Methods of Use” (Chengdu Anticancer Bioscience, LTD., priority 2019, published 2024).

Structures are written as SMILES. “And” between values parts separate entries of the source, which are not always exact repeats. Equal values may be shown once. “Also recorded” adds a separate entry of the source. Read-outs that look alike come from different tables or passages of the source. Some results are limits rather than exact numbers.

Usually IC50 stands for the midpoint of a concentration-inhibition curve.

On to `CN1Cc2c(ccc3c2OCO3)[C@@H]2[C@H]1c1cc3c(cc1C[C@@H]2O)OCO3` [Chelidonine, 5bR,6S,7,12bS,13,14-hexahydro-13-methyl-[1,3]benzodioxolo[5,6-c]-1,3-dioxolo[4,5-i]phenanthridin-6-ol], for which the IC50 in assay [1] (Homo sapiens, 72 h) was found to be 1.11 µM; in assay [2] (Mus musculus, MEF, 72 h) it was 1.52 µM; in assay [3] it was 2.43 µM; in assay [4] (Homo sapiens, 72 h), 1.85 µM; in assay [5] (Homo sapiens, 72 h), 2.32 µM; in assay [8] (72 h), 1.11 µM. The same molecule had an IC50 in assay [9] (Homo sapiens, 72 h) above 40 µM. Moreover, the mitotic arrest entry in assay [6] is “Nearly all cells entered and arrested in mitosis”. Besides, the “polyploidy (DAPI staining)” value in [6] was “polyploidy was observed; also recorded: demonstrates polyploidy”. Also, in assay [6], the “persistence of the arrest of cells in mitosis” value (from here on “persistence”) was “transient”. Also, the “spindle formation (β-tubulin staining)” value in [7] (24 hours of treatment) is “multipolar spindles were formed; also recorded: multipolar spindle formation in mitosis”. Also, the “centrosomes (β-tubulin staining)” value in assay [7] (analyzed after 24 or 48 hours) was “centrosome amplification and centrosome declustering”.
Consider `CN1Cc2c(ccc3c2OCO3)[C@@]2(C)[C@@H](O)Cc3cc4c(cc3[C@@H]12)OCO4` [Corynoline, (5bR)-5bα,13-Dimethyl-5bα,6,7,12bα,13,14-hexahydro[1,3]benzodioxolo[5,6-c]-1,3-dioxolo[4,5-i]phenanthridine-6β-ol], for which the “phosphorylation of Histone 3 at Ser10” value in assay [10] is on record as “not affected”. Moreover, the IC50 is 7.06 µM in assay [1] (Homo sapiens, 72 h); 1 to 31 µM in assay [11]; 12.2 µM in [2] (Mus musculus, MEF, 72 h); above 40 µM in assay [3]; 10.6 µM in assay [4] (Homo sapiens, 72 h); 15.1 µM in assay [5] (Homo sapiens, 72 h). For the same molecule, the IC50 was 8.61 µM in [8] (72 h) and 8.87 µM in assay [9] (Homo sapiens, 72 h). Besides, in assay [11] (all different cell lines), the “IC50 compared with the other compound” value is reported as “lower than acetylcorynoline”. For the same molecule, the “change of IC50 after overexpression of oncogenic factors” value in [12] was “all declined, with the exception of RPE MA”. Besides, the mitotic arrest entry is “can arrest mitosis within 24 hours of treatment” in [6]; “Nearly all cells entered and arrested in mitosis” in [6] (listed as corynoline). For the same molecule, the entries for the “polyploidy (DAPI staining)” value in assay [6] and in assay [6] (listed as corynoline) were “induce polyploidy at 48 hours” and “Polyploidy was observed; also recorded: demonstrates polyploidy”, respectively. Moreover, the “mitotic arrest and polyploidy, dependence on concentration” value in assay [6] (FIG. 15) is listed as “concentration-dependent”. In addition, the “persistence” value in assay [6] is on record as “transient”. Also, the “change of IC50 after overexpression of oncogenes” value in assay [13] is reported as “increased in the Rat1 A MYC cell line”.
On to `CN(C)c1ccc(C(=O)c2ccc(N(C)C)cc2)cc1` [MK, Michael's ketone, reference compound], for which the IC50 was found to be 0.805 µM in assay [1] (RPE-Neo, treatment 72 h, read-out: IC50); 3.48 µM in assay [2] (setting [15]); 0.087 µM in assay [4] (setting [16]); 0.303 µM in assay [5] (setting [17]); 1.65 µM in [8] (Rat1A, treatment 72 h, read-out: IC50); 0.207 µM in assay [9] (RPE-MBC, treatment 72 h, read-out: IC50).
For `CC(=O)O[C@H]1C(=O)[C@@]2(C)[C@H]([C@H](OC(=O)c3ccccc3)[C@]3(O)C[C@H](OC(=O)[C@H](O)[C@@H](NC(=O)c4ccccc4)c4ccccc4)C(C)=C1C3(C)C)[C@]1(OC(C)=O)CO[C@@H]1C[C@@H]2O` [Taxol, paclitaxel], the IC50 in assay [11] (across all of the cell lines tested (FIG. 9), MTT at 72 h or 96 h, read-out: IC50) was below 0.02 µM; in assay [2] (setting [15]), 0.062 µM and 0.096 µM; in assay [2] (Mus musculus, MEF, 72 h, 3T3 MEF, treatment 72 h, read-out: IC50), 0.075 µM; in assay [3] (IMR 90, treatment 72 h, read-out: IC50) it was 6.98 µM; in assay [14] it was below 0.02 µM; in assay [4] (Homo sapiens, 72 h, RPE-A19, treatment 72 h, read-out: IC50), 13.4 µM. The IC50 is 15.7 µM and 13 µM in [4] (setting [16]); 31.4 µM in assay [5] (Homo sapiens, 72 h, RPE-MBH, treatment 72 h, read-out: IC50); 22.1 µM and 22.7 µM in assay [5] (setting [17]); above 40 µM in assay [9] (Homo sapiens, RPE-MBC, treatment 72 h, read-out: IC50). For the same molecule, the “polyploidy (DAPI staining)” value in assay [6] is “without causing accumulation of polyploid cells”. Moreover, in assay [6], the “persistence” value is “persistent arrest of cells in mitosis”.
For the molecule `CN1CCc2cc3c(cc2C(=O)Cc2ccc4c(c2C1)OCO4)OCO3` [protopine, 7-Methyl-6,8,9,16-tetrahydrobis[1,3]benzodioxolo[4,5-c:5′,6′-g]azecin-15(7H)-one], in assay [6], the mitotic arrest entry is “Nearly all cells entered and arrested in mitosis”; the “polyploidy (DAPI staining)” value is “Polyploidy was observed”; the “persistence” value is recorded as “transient”.
In the case of `CC[C@]1(O)C[C@@H]2CN(CCc3c([nH]c4ccccc34)[C@@](C(=O)OC)(c3cc4c(cc3OC)N(C)[C@H]3[C@@](O)(C(=O)OC)[C@H](OC(C)=O)[C@]5(CC)C=CCN6CC[C@]43[C@@H]65)C2)C1` [vinblastine, reference compound], in assay [6], the “polyploidy (DAPI staining)” value is recorded as “without causing accumulation of polyploid cells” and the “persistence” value is recorded as “persistent arrest of cells in mitosis”.
